Test results taken from the supplement of paper PMC10307832.

Tests used:
Test in all cases: relative viability (nuclei count vs DMSO), 5 days (fraction); higher = more cells survive
[1] = compound: C[As](C)SC[C@H](NC(=O)CC[C@H](N)C(=O)O)C(=O)NCC(=O)O [Darinaparsin] + Cc1cc(Nc2cc(N3CCN(C)CC3)nc(Sc3ccc(NC(=O)C4CC4)cc3)n2)n[nH]1 [Tozasertib] (partner 0.1 µM)
In short: (§1)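 Dosing by pin tool came one day after lung cancer cell lines were seeded in 1536-well plates, using either one drug or a fixed anchor-drug dose plus five library-drug doses (not always all listed) in √10 steps. After 5 days, nuclei were counted on 4× images. Relative viability is treated-well nuclei count divided by vehicle-well nuclei count, and values are medians of duplicate plates.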

QS11 + Vorinostat = compound: C1CC2=C(C1)C=C(C=C2)OC3=NC(=C4C(=N3)N(C=N4)CC5=CC=C(C=C5)C6=CC=CC=C6)N[C@@H](CC7=CC=CC=C7)CO [QS11] + O=C(CCCCCCC(=O)Nc1ccccc1)NO [Vorinostat] (partner 1 µM)
In short: as §1

Darinaparsin + Olaparib = compound: C[As](C)SC[C@H](NC(=O)CC[C@H](N)C(=O)O)C(=O)NCC(=O)O [Darinaparsin] + O=C(c1cc(Cc2n[nH]c(=O)c3ccccc23)ccc1F)N1CCN(C(=O)C2CC2)CC1 [Olaparib] (partner 8 µM)
In short: as §1

QS11 + Pemetrexed = compound: C1CC2=C(C1)C=C(C=C2)OC3=NC(=C4C(=N3)N(C=N4)CC5=CC=C(C=C5)C6=CC=CC=C6)N[C@@H](CC7=CC=CC=C7)CO [QS11] + Nc1nc2[nH]cc(CCc3ccc(C(=O)N[C@@H](CCC(=O)O)C(=O)O)cc3)c2c(=O)[nH]1 [Pemetrexed] (partner 0.2 µM)
In short: as §1

| Cell Line | relative viability ([1]; first compound 0.08 µM) | relative viability ([1]; first compound 0.8 µM) | relative viability ([1]; first compound 2.53 µM) | relative viability ([1]; first compound 8 µM) | relative viability (QS11 + Vorinostat; first compound 0.253 µM) | relative viability (QS11 + Vorinostat; first compound 0.8 µM) | relative viability (QS11 + Vorinostat; first compound 2.53 µM) | relative viability (QS11 + Vorinostat; first compound 8 µM) | relative viability (Darinaparsin + Olaparib; first compound 0.08 µM) | relative viability (Darinaparsin + Olaparib; first compound 0.8 µM) | relative viability (Darinaparsin + Olaparib; first compound 2.53 µM) | relative viability (Darinaparsin + Olaparib; first compound 8 µM) | relative viability (QS11 + Pemetrexed; first compound 0.253 µM) | relative viability (QS11 + Pemetrexed; first compound 0.8 µM) | relative viability (QS11 + Pemetrexed; first compound 2.53 µM) | relative viability (QS11 + Pemetrexed; first compound 8 µM) | relative viability (QS11 + Vorinostat; first compound 0.08 µM) | relative viability (QS11 + Pemetrexed; first compound 0.08 µM) |
| --- | --- | --- | --- | --- | --- | --- | --- | --- | --- | --- | --- | --- | --- | --- | --- | --- | --- | --- |
| ChaGo-K-1 | 0.266 | 0.206 | 0.242 | 0.232 | 0.799 | 0.935 | 0.767 | 0.745 | 0.469 | 0.417 | 0.385 | 0.401 | 0.269 | 0.256 | 0.263 | 0.255 |  |  |
| NCI-H2342 | 0.545 | 0.443 | 0.53 | 0.44 | 0.733 | 0.947 | 0.669 | 0.746 | 0.484 | 0.398 | 0.461 | 0.415 | 0.829 | 0.809 | 0.797 | 0.795 | 0.759 | 0.77 |
| NCI-H1975 | 1.12 | 0.804 | 0.783 | 0.905 | 0.783 | 0.752 | 0.795 | 0.654 | 1.09 | 0.782 | 0.808 | 1.02 | 0.279 | 0.332 | 0.326 | 0.307 | 0.669 | 0.302 |
| CAL-12T | 0.343 | 0.3 | 0.326 | 0.341 | 0.915 | 0.713 | 0.983 | 0.704 | 0.875 | 0.617 | 0.822 | 0.698 | 1.37 | 1.05 | 1.24 | 1.04 | 0.867 | 1.26 |
| NCI-H1648 | 0.346 | 0.53 |  | 0.474 | 0.666 | 0.517 | 0.505 | 0.577 |  | 0.765 |  | 1.05 | 0.713 | 0.637 | 0.748 | 0.875 | 0.506 | 0.762 |
| NCI-H358 | 0.1 | 0.102 | 0.124 | 0.101 | 0.602 | 0.782 | 0.65 | 0.49 | 0.701 | 0.61 | 0.585 | 0.569 | 0.175 | 0.146 | 0.186 | 0.168 | 0.64 | 0.167 |
| NCI-H3122 | 0.446 | 0.41 | 0.377 | 0.417 | 1.21 |  | 1.03 | 0.584 | 0.796 | 0.589 | 0.572 | 0.791 | 0.214 |  | 0.25 | 0.296 | 1 | 0.2 |
| NCI-H2347 | 0.587 |  | 0.555 | 0.469 | 0.579 | 0.541 | 0.662 | 0.56 | 0.646 | 0.472 | 0.559 | 0.577 | 0.426 | 0.396 | 0.458 | 0.446 | 0.596 | 0.455 |
| HCC-15 | 0.525 | 0.347 | 0.298 | 0.364 | 0.944 | 0.651 | 0.84 | 0.648 | 0.762 | 0.712 | 0.738 | 0.722 | 0.232 | 0.223 | 0.274 | 0.227 | 0.861 | 0.213 |
| HCC-366 | 0.147 | 0.0892 | 0.149 | 0.168 | 0.283 |  | 0.152 | 0.161 | 0.502 |  | 0.328 | 0.42 | 0.139 |  | 0.175 | 0.136 | 0.353 | 0.163 |
| BEN | 0.489 | 0.498 | 0.463 | 0.444 | 0.528 | 0.528 | 0.688 | 0.647 | 1.21 | 0.993 | 1.06 | 1.08 | 0.764 | 0.911 | 0.852 | 0.815 | 0.568 | 0.638 |
| NCI-H1993 | 0.598 | 0.585 | 0.549 | 0.557 | 0.629 | 0.776 | 0.983 | 0.498 | 1.06 | 1.01 | 1.1 | 1.08 | 0.503 | 0.618 | 0.573 | 0.618 | 0.972 | 0.649 |
| NCI-H2405 | 0.777 | 0.776 | 0.703 | 0.889 | 0.957 | 0.766 | 1.06 | 0.974 | 0.992 | 0.865 | 0.841 | 0.914 | 1.02 | 0.974 | 1.05 | 1.05 | 1.12 | 1.01 |
| NCI-H2126 | 0.935 | 0.794 | 0.69 | 0.878 | 0.777 | 0.717 | 0.732 | 0.661 | 0.986 | 0.886 | 0.84 | 1.12 | 0.681 | 0.604 | 0.565 | 0.59 | 0.801 | 0.623 |
| LK-2 | 0.203 |  | 0.177 | 0.175 | 0.27 | 0.467 | 0.323 | 0.28 | 0.727 | 0.546 | 0.644 | 0.731 | 0.318 | 0.267 | 0.27 | 0.284 | 0.282 | 0.241 |
| SK-MES-1 | 1.08 | 0.854 | 0.74 | 0.968 | 1.01 | 0.987 | 1.23 | 1.08 | 0.888 | 0.66 | 0.662 | 0.474 | 0.94 | 0.832 | 0.977 | 0.863 | 1.25 | 1.08 |
| NCI-H1944 | 0.245 | 0.263 | 0.251 | 0.243 | 0.491 |  | 0.424 | 0.505 | 0.458 | 0.44 | 0.363 | 0.404 | 0.632 |  | 0.491 | 0.565 | 0.485 | 0.535 |
| SW 1573 | 0.145 | 0.2 | 0.197 | 0.14 | 0.629 | 0.52 | 0.296 | 0.253 | 0.592 | 0.493 | 0.42 | 0.431 | 0.926 | 0.792 | 0.418 | 0.539 | 0.912 | 0.811 |
| PC-14 | 0.707 | 0.479 | 0.768 | 0.577 | 0.839 | 0.695 | 0.808 | 0.69 | 0.234 | 0.261 | 0.222 | 0.225 | 0.145 | 0.14 | 0.178 | 0.155 |  |  |
| LC-2-ad | 0.49 | 0.425 | 0.329 | 0.35 | 0.739 | 0.531 | 0.671 | 0.74 | 0.739 | 0.748 | 0.669 | 0.719 | 0.27 | 0.27 | 0.294 | 0.26 | 0.748 | 0.273 |
| 201T | 1.04 | 0.914 | 0.994 | 1.12 | 0.995 | 0.797 | 0.866 | 0.668 | 0.942 | 0.851 | 0.803 | 0.863 | 0.348 | 0.328 | 0.358 | 0.267 | 0.937 | 0.357 |
| NCI-H2023 | 0.696 | 0.306 | 0.357 | 0.425 | 0.655 | 0.527 | 0.759 | 0.318 | 0.721 | 0.407 | 0.416 | 0.434 | 0.276 | 0.241 | 0.197 | 0.194 | 0.417 | 0.293 |
| HOP-62 | 0.352 | 0.414 | 0.343 | 0.354 | 0.564 | 0.533 | 0.416 | 0.447 | 0.56 | 0.487 | 0.402 | 0.525 | 0.371 | 0.276 | 0.23 | 0.283 | 0.556 | 0.414 |
| NCI-H661 | 0.357 | 0.351 | 0.377 | 0.361 | 0.805 | 0.632 | 0.804 | 0.672 | 0.799 | 0.787 | 0.699 | 0.815 | 0.911 | 0.794 | 0.953 | 0.857 | 0.786 | 1.03 |
| NCI-H1734 | 0.276 | 0.257 | 0.256 | 0.297 | 0.82 | 0.779 | 0.792 | 0.672 | 0.73 | 0.561 | 0.627 | 0.641 | 0.393 | 0.393 | 0.472 | 0.424 | 0.79 | 0.374 |
| EKVX | 0.431 | 0.448 | 0.32 | 0.4 | 0.625 | 0.592 | 0.567 | 0.545 | 0.878 | 0.697 | 0.801 | 0.735 | 0.412 | 0.412 | 0.356 | 0.345 | 0.642 | 0.385 |
| NCI-H1355 | 0.571 | 0.568 | 0.44 | 0.499 | 0.62 | 0.529 | 0.597 | 0.554 | 0.78 | 0.708 | 0.676 | 0.746 | 0.993 | 0.782 | 1.08 | 1.02 | 0.732 | 1.03 |
| NCI-H1650 | 0.473 | 0.325 | 0.417 | 0.394 | 0.446 | 0.51 | 0.476 | 0.389 | 0.956 | 0.718 | 0.95 | 0.801 | 0.33 | 0.321 | 0.34 | 0.366 | 0.463 | 0.472 |
| H3255 | 0.605 | 0.585 | 0.63 | 0.598 | 0.947 |  | 0.758 | 0.861 | 0.644 | 0.518 | 0.606 | 0.632 | 0.632 | 0.532 | 0.562 | 0.53 | 0.763 | 0.578 |
| NCI-H23 | 0.372 | 0.333 | 0.348 | 0.754 | 0.6 | 0.564 | 0.544 | 0.491 | 0.293 | 0.291 | 0.363 | 0.331 | 0.582 | 0.694 | 0.657 | 0.689 | 0.542 | 0.766 |
